From patent US10317418B2, “Use of ghrelin or functional ghrelin receptor agonists to prevent and treat stress-sensitive psychiatric illness” (Massachusetts Institute of Technology, priority 2015, dated 2019)
“Also recorded” adds a separate entry of the source. Structures can show the parent of a compound that is named as a salt.

Key:
[1] = test system: Long Evans rats; assay: auditory Pavlovian fear conditioning and extinction testing, unstressed rats; format: in vivo, rat
Protocol: All experiments used adult, male Long Evans rats (300-350 g, Charles River, Raleigh, N.C. or 250-275 g, Taconic, Germantown, N.Y.), individually housed (68-72° F.; 12-h light/dark cycle, 0700 h lights on). Control animals were housed in separate cubicles from stressed animals. Water and food was given ad libitum. All procedures were approved by the Institutional Animal Care and Use Committee of the Massachusetts Institute of Technology and the Animal Care and Use Review Office of the US Army Medical Research and Materiel Command and in accordance with the US National Institutes of Health (NIH) Guide for the Care and Use of Laboratory Animals.
(§1) Some rats received systemic or intra-BLA delivery of ibutamoren mesylate (IBU). For systemic drug delivery, rats were injected with 1 ml kg^−1 intraperitoneal injection (i.p.) of either vehicle or drug. […] A concentration of 0.5 mg ml^−1, diluted in saline, was used. For experiments using intra-BLA drug delivery, ibutamoren mesylate was solubilized in artificial cerebrospinal fluid (pH=7.4) to a concentration of 0.5 μg μl^−1.
Some rats received bilateral implants of stainless steel cannulae aimed at the BLA. Rats were anesthetized with a cocktail of 10 mg kg^−1 acepromazine, 100 mg kg^−1 xylazine, and 100 mg kg^−1 ketamine (1 ml kg^−1; i.p.) and placed in a dual arm stereotaxic frame (Kopf Instruments; Tujunga, Calif.). The rats were then implanted with 23 gauge guide cannulae 1 mm above LA using the following coordinates, relative to bregma and brain surface: A/P −2.0, M/L+/−5.3, D/V −5.4. Three jeweler screws were also implanted in the skull, and dental acrylic was used to secure the implant. Dummy cannulae extending 1 mm past the tip of the guide cannulae were placed into the guide cannula after surgery and changed every other day. Rats received 0.03 mg kg^−1 of Buprenex (1 ml kg^−1; subcutaneous injection (s.c.)) for post-operative pain management. All rats recovered for a minimum of 5 days.
A subset of rats were subjected to auditory Pavlovian fear conditioning and extinction testing. All rats were transported in their home cages from the vivarium to a holding room in which no behavioral testing was conducted. This transport occurred at least one hour prior to the onset of any behavioral testing.
For catheterized rats, each rat was placed in a fear conditioning box (MedAssociates; St. Albans, Vt.) scented with Pine-Sol (1%) for 250 sec total. The rats had 3 minutes to explore the novel environment before tone (10 seconds, 85 dB)-shock (2 seconds, 0.35 mA; coterminating with the tone) pairings [20 second intertrial intervals (ITIs)] were administered. Long-term context and tone fear memory was assessed the following day. For context extinction, the rats were returned to the fear conditioning context for a total of 10 minutes. Four hours later, tone extinction was administered by placing the rats in the fear conditioning boxes with an altered context. White Plexiglas inserts were used to obscure the back and side walls and cover the grid floor. Room and box lights were turned off, a red light provided illumination (15 W), and acetic acid (1%) was used to scent the boxes. Two minutes were allowed for exploration before a continuous tone (8 minutes, 87 dB) was presented. For rats with BLA cannula implants, all conditioning and testing was as described, except context and tone extinction were separated by 24 hours.
(§2) On the fear conditioning day, rats were exposed to four tone-shock pairings with a 60 second ITI (460 seconds total time). For context extinction, rats were returned to the conditioning context for 12 minutes total. For tone extinction, rats were exposed to twelve tones (10 seconds, 85 dB) for 960 seconds total. Conditioning, context and tone extinction sessions were separated by 24 hours.
Infrared cameras (frame rate: 30 Hz) and VideoFreeze software (MedAssociates; St Albans, Vt.) were used to record behavior during all training and testing sessions. […]

[2] = test system: Long Evans rats; assay: auditory fear conditioning after chronic immobilization stress or handling; format: in vivo, rat; conditions: FIG. 4F
Protocol: as §1, §2
Infrared cameras (frame rate: 30 Hz) and VideoFreeze software (MedAssociates; St Albans, Vt.) were used to record behavior during all training and testing sessions. Motor activity was measured using the “motion index”, a number generated by the VideoFreeze software, which corresponds roughly to the change in grayscale values across the image pixels; a higher motion index indicates greater movement. Freezing was measured by computing the number of observations below a threshold motion index and converting this number to a percentage of all observations for the period of interest. The threshold defined the value of the motion index below which only motor activity related to breathing was observed. […]
To determine whether the decrease in ghrelin binding sites in the BLA of chronically stressed rats exerts a functional impact, rats received either chronic immobilization stress or handling for two weeks followed by auditory fear conditioning (FIG. 4E). IBU, at the dose shown to reduce fear memory strength in unstressed rats (FIGS. 3A-D), or VEH was injected immediately after conditioning and long-term auditory fear memory was assessed two days later. […]

[3] = test system: Long Evans rats; assay: food consumption assay and body weight after IBU; format: in vivo, rat
Protocol: as §1
For some rats, food consumption was monitored. After fear conditioning as described above, each rat was returned to its home cage in a holding room. Each rat had 200 g of chow placed in the food hopper. Food was quickly weighed and returned 30 minutes, 1 hour, 2 hours, and 3 hours after fear conditioning ended. Three days after fear recall testing (five days after fear conditioning), food consumption was measured during the same time points within the day, but while the rats were undisturbed in their home cages in the vivarium.
To assess fear memory strength, conditional freezing was expressed as the percentage of time spent freezing, a probability estimate amenable to analysis with parametric statistics. These estimates of freezing, as well as hormone levels and data related to food consumption and body weight, were analyzed using ANOVA. Post hoc Fisher's PLSD tests were performed after a significant omnibus F-ratio.

[4] = in vivo; cited from earlier work
[5] = intra-BLA infusion (0.5 μg/μl) prior to fear conditioning, FIG. 3B
[6] = systemic (i.p., 0.5 mg/ml) prior to fear conditioning, vs vehicle, FIG. 3A
[7] = systemic, 0.5 mg/mL, following fear conditioning, FIG. 7A

CC(C)(N)C(=O)N[C@H](COCc1ccccc1)C(=O)N1CCC2(CC1)CN(S(C)(=O)=O)c1ccccc12 [IBU, ibutamoren mesylate]
fear acquisition [1, 5]: without any effect; also recorded: without affecting
long-term auditory fear memory [1, 5]: strongly inhibited; also recorded: significantly impaired
long-term contextual memory [1, 5]: strongly inhibited; also recorded: significantly impaired
fear acquisition [1, 6]: without impacting; also recorded: without affecting
long-term contextual memory [1, 6]: without impacting; also recorded: without affecting
long-term auditory fear memory ([1]; systemic (i.p., 1 ml/kg of 0.5 mg/ml) 30 minutes prior to fear conditioning, vs vehicle, FIG. 3A): significantly lower levels; also recorded: significantly impaired
fear acquisition [1, 7]: without any effect; also recorded: without affecting
long-term auditory fear memory [1, 7]: strongly inhibited; also recorded: significantly impaired
long-term contextual fear memory [1, 7]: strongly inhibited; also recorded: significantly impaired
long-term auditory fear memory (conditional freezing) ([2]; rats exposed to chronic immobilization stress (14 days), systemic IBU): no effect and not
freezing during fear conditioning (group differences) ([2]; stressed and unstressed rats, IBU or VEH): No group differences
long-term auditory fear memory ([2]; unstressed (handled) rats, systemic IBU): reduced; also recorded: significantly impaired
body weight measured 24 hours after injection ([3]; intra-BLA infusion, FIG. 3D): does not change
body weight ([3]; systemic, 0.5 mg/mL, IBU vs vehicle group, FIG. 3C right panel): did not differ
food consumption shortly following injection ([3]; systemic, 0.5 mg/mL, relative to body weight, FIG. 3C left panel): does not impact
food consumption cumulatively, over the 24 hours following injection ([3]; systemic, 0.5 mg/mL, relative to body weight, FIG. 3C middle panel): does not impact
food consumption shortly following injection ([3]; systemic, 10 mg/mL (twenty times the dose), FIG. 7B left panel): does not impact
food consumption cumulatively, over the 24 h following injection ([3]; systemic, 10 mg/mL (twenty times the dose), FIG. 7B middle panel): does not impact
crossing of the blood-brain barrier [4]: readily crosses
half-life [4]: > 6 h
